Experimental data reported in patent US20120172359A1 (NOVARTIS AG, priority 2010, published 2012).
Structures can show the parent of a compound that is named as a salt.

What was measured:
[1] = biological target: Human BACE-1 (Homo sapiens, UniProt P56817); assay: Test 1: Inhibition of Human BACE-1; type: biochemical; settings: Test 1; recombinant BACE-1 (extracellular domain), acetate buffer pH 4.5, 1 hour with test compound at room temperature, fluorescence-quenched peptide substrate; read-out: Bace IC50
Human BACE-1, sequence (P56817 46-457 limits assumed): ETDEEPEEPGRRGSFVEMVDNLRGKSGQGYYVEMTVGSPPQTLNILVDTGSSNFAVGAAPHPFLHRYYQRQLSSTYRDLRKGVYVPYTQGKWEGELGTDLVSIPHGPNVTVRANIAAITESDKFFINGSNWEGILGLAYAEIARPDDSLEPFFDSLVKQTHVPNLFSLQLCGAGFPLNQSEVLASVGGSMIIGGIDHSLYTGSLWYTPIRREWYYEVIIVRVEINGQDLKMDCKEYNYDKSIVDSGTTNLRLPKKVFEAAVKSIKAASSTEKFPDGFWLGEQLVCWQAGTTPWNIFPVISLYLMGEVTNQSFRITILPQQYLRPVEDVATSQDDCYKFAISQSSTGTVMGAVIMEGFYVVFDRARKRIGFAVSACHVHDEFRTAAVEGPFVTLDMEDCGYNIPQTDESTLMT

[2] = tested on: cellular release of amyloid peptide 1-40; assay: Test 4: Inhibition of Cellular Release of Amyloid Peptide 1-40; type: cell-based; settings: Cricetulus griseus, Chinese hamster ovary cells transfected with the gene for amyloid precursor protein, 24 hours with test compound, amyloid peptide 1-40 in supernatant, read-out: Bace IC50
Method: Test 4: Inhibition of Cellular Release of Amyloid Peptide 1-40
Chinese hamster ovary cells are transfected with the gene for amyloid precursor protein. The cells are plated at a density of 8000 cells/well into 96-well microtiter plates and cultivated for 24 hours in DMEM cell culture medium containing 10% FCS. The test compound is added to the cells at various concentrations, and the cells are cultivated for 24 hours in the presence of the test compound. The supernatants are collected, and the concentration of amyloid peptide 1-40 is determined using state of the art immunoassay techniques, for example sandwich ELISA, homogenous time-resolved fluorescence (HTRF) immunoassay, or electro-chemiluminescence immunoassay.

Structure (SMILES) | IC50 [1] | IC50 [2]
Cc1nc(C(=O)Nc2cccc(C3(C(F)F)COCC(N)=N3)c2)co1 (centres unmarked) [Example 104, 2-Methyl-oxazole-4-carboxylic acid [3-(5-amino-3-difluoromethyl-3,6-dihydro-2H-[1,4]oxazin-3-yl)-phenyl]-amide hydrochloride] | 1500 nM | 150 nM
Cl.[2H]c1nc(C(=O)Nc2ccc(F)c([C@]3(C(F)F)COCC(N)=N3)c2)c(C([2H])([2H])[2H])c([2H])c1Br [Example 116, 5-Bromo-4,6-dideutero-3-trideuteromethyl-pyridine-2-carboxylic acid [3-((R)-5-amino-3-difluoromethyl-3,6-dihydro-2H-[1,4]oxazin-3-yl)-4-fluoro-phenyl]-amide hydrochloride] | 18 nM | 4 nM
CC#CCOc1cnc(C(=O)Nc2ccc(F)c([C@]3(C(F)F)COCC(N)=N3)c2)cn1 [Example 164, 5-But-2-ynyloxy-pyrazine-2-carboxylic acid [3-((R)-5-amino-3-difluoromethyl-3,6-dihydro-2H-[1,4]oxazin-3-yl)-4-fluoro-phenyl]-amide] | 1 nM | 1 nM

More lines, now with the values ahead:

IC50 [1] | IC50 [2] | Structure (SMILES)
2200 nM | 1200 nM | NC1=N[C@@](c2cc(NC(=O)c3cn4ccccc4n3)ccc2F)(C(F)F)COC1 [Example 129, Imidazo[1,2-a]pyridine-2-carboxylic acid [3-((R)-5-amino-3-difluoromethyl-3,6-dihydro-2H-[1,4]oxazin-3-yl)-4-fluoro-phenyl]-amide hydrochloride]
17 nM | 6 nM | Cc1cc(C#N)cnc1C(=O)Nc1ccc(F)c([C@]2(C(F)F)COCC(N)=N2)c1 [Example 144, 5-Cyano-3-methyl-pyridine-2-carboxylic acid [3-((R)-5-amino-3-difluoromethyl-3,6-dihydro-2H-[1,4]oxazin-3-yl)-4-fluoro-phenyl]-amide]
79 nM | 8 nM | [2H]c1nc(C(=O)Nc2ccc(F)c([C@]3(C(F)F)COCC(N)=N3)c2)c(C([2H])([2H])[2H])c([2H])c1C#N [Example 147, 5-Cyano-4,6-dideutero-3-trideuteromethyl-pyridine-2-carboxylic acid [3-((R)-5-amino-3-difluoromethyl-3,6-diydro-2H-[1,4]oxazin-3-yl)-4-fluoro-phenyl]-amide]
16 nM | 4 nM | COc1cnc(C(=O)Nc2ccc(F)c([C@]3(C(F)F)COCC(N)=N3)c2)c(N)n1 [Example 175, 3-Amino-5-methoxy-pyrazine-2-carboxylic acid [3-((R)-5-amino-3-difluoromethyl-3,6-dihydro-2H-[1,4]oxazin-3-yl)-4-fluoro-phenyl]-amide]
